Values after ≈ are worked out from the molar mass of the structure shown. Where two headings read alike, the source gives them in different places.
Key:
[1] = Predicted plasma clearance (Clp), well-stirred model, human; assay type: in vitro ADME; settings: percentage of hepatic blood flow
Human FXIa = Human FXIa (Homo sapiens (Human), UniProt P03951); assay: Determination of the % inhibition / IC50 for FXIa; assay type: biochemical; settings: for inhibition at 40 µM: 40 μM test compound, read-out: % Inhibition @ 40 μM (human FXIa); for IC50: 25° C., substrate Z-Gly-Pro-Arg-AFC
Method: FXIa inhibitory activity in vitro was determined using standard published methods (see e.g. Johansen et al., Int. J. Tiss. Reac. 1986, 8, 185; Shori et al., Biochem. Pharmacol., 1992, 43, 1209; Sturzebecher et al., Biol. Chem. Hoppe-Seyler, 1992, 373, 1025). […]

[2] = Predicted plasma clearance (Clp), well-stirred model, rat; assay type: in vitro ADME; settings: percentage of hepatic blood flow
[3] = Plasma protein binding (PPB), rapid equilibrium dialysis, human plasma; assay type: in vitro ADME; settings: 5 μM test compound, dialysis 5 hrs at 37° C.
[4] = Pharmacokinetics following a single oral dose in male Sprague-Dawley rats; assay type: in vivo; settings: rat, single po dose (nominal 10 mg/kg; actual dose per row in column Dose po), 10% DMSO/10% cremophor/80% SWFI, plasma
Method: Pharmacokinetic studies of the compounds in Table 13 were performed to assess the pharmacokinetics following a single oral dose in male Sprague-Dawley rats. Two rats were given a single po dose of 5 mL/kg of a nominal 2 mg/mL (10 mg/kg) composition of test compound in vehicle. Following dosing, blood samples were collected over a period of 24 hours. Sample times were 5, 15 and 30 minutes then 1, 2, 4, 6, 8 and 12 hours. Following collection, blood samples were centrifuged and the plasma fraction analysed for concentration of test compound by LCMS.

Human KLK1 = Human KLK1 (Homo sapiens (Human), UniProt P06870); assay: Determination of the IC50 for KLK1; assay type: biochemical; settings: 25° C., substrate H-DVal-Leu-Arg-AFC
Method: (§1) Human KLK1 (Callbiochem) was incubated at 25° C. with the fluorogenic substrate H-DVal-Leu-Arg-AFC and various concentrations of the test compound. Residual enzyme activity (initial rate of reaction) was determined by measuring the change in […] at 410 nm and the IC50 value for the test compound was determined.

[5] = Intrinsic clearance in human liver microsomes; assay type: in vitro ADME; settings: human liver microsomes 0.5 mg/mL, 5 μM test compound, 37° C.; read-out: Human liver microsome (Clint μL/min/mg protein)
Method: (§2) Rat or human liver microsomes (0.5 mg/mL; Corning) were incubated with 5 μM test compound at 37° C. on a shaking platform (150 rpm). Samples were taken at 0, 6, 12, 18, 24 and 60 min and test compound concentrations were determined by LCMS against a calibration curve.

trypsin = assay: Determination of enzyme selectivity: trypsin; assay type: biochemical, human; settings: substrate at Km concentration
Method: (§3) Human serine protease enzymes plasmin, thrombin and trypsin were assayed for enzymatic activity using an appropriate fluorogenic substrate. Protease activity was measured by monitoring the accumulation of liberated fluorescence from the substrate over 5 minutes. The linear rate of fluorescence increase per minute was expressed as percentage (%) activity. The Km for the cleavage of each substrate was determined by standard transformation of the Michaelis-Menten equation.

[6] = Plasma protein binding (PPB), rapid equilibrium dialysis, rat plasma; assay type: in vitro ADME; settings: 5 μM test compound, dialysis 5 hrs at 37° C.
plasmin = plasmin (Homo sapiens (Human), UniProt P00747); assay: Determination of enzyme selectivity: plasmin; assay type: biochemical; settings: substrate at Km concentration
Method: as §3

thrombin = thrombin (Homo sapiens (Human), UniProt P00734); assay: Determination of enzyme selectivity: thrombin; assay type: biochemical; settings: substrate at Km concentration
[7] = Intrinsic clearance in rat liver microsomes; assay type: in vitro ADME; settings: rat liver microsomes 0.5 mg/mL, 5 μM test compound, 37° C.; read-out: rat liver microsome (Clint μL/min/mg protein)
Method: as §2

[8] = In vitro permeability, Caco-2 model for oral absorption; assay type: in vitro ADME; settings: human, apical to basolateral, 50 μM test compound, 37° C.
Procedure, shortened: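 Caco-2 monolayers grown on collagen inserts for 3 days, with 50 μM compound added apically and incubated 1 hour at 37° C with shaking. Apical-to-basolateral transport measured by LCMS in both compartments. Monolayer integrity checked by TEER before and after, and by Lucifer Yellow flux.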

Human Factor XIIa = Human Factor XIIa (Homo sapiens (Human), UniProt P00748); assay: Factor XIIa inhibitory activity in vitro; assay type: biochemical; settings: 25° C., substrate H-DPro-Phe-Arg-AFC; read-out: IC50 (human FXIIa)
Method: as §1, with “Factor XIIa (Enzyme Research Laboratories)” for “KLK1 (Callbiochem)”, “H-DPro-Phe-Arg-AFC” for “H-DVal-Leu-Arg-AFC”

Human plasma kallikrein = Human plasma kallikrein (Homo sapiens (Human), UniProt P03952); assay: Determination of the IC50 for plasma kallikrein; assay type: biochemical; settings: 25° C., substrate H-DPro-Phe-Arg-AFC; read-out: IC50 (human PKal)
Method: as §1, with “plasma kallikrein (Protogen)” for “KLK1 (Callbiochem)”, “H-DPro-Phe-Arg-AFC” for “H-DVal-Leu-Arg-AFC”

[9] = Solubility in water and 0.1N HCl (aq); assay type: physicochemical; settings: thermodynamic from solid, incubated at 1 mg/mL, 37° C.
Method: Solubility was determined in water and 0.1N HCl (aq). Test compounds were incubated at 1 mg/mL for 24 hrs at 37° C. on a shaking platform (500 rpm). Samples were taken at 1, 4 and 24 hrs and centrifuged at 15,000 g for 10 min. Test compound concentration in the supernatant was determined by LCMS against a standard curve.

Chain of Human FXIa (P03951 388-625): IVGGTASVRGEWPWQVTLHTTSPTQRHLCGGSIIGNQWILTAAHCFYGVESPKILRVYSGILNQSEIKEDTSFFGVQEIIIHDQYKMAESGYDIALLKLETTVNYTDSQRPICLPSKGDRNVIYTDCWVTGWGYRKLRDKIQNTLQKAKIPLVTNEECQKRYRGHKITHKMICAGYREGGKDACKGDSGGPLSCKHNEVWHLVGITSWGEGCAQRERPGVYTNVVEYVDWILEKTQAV
Chain of Human FXIa (P03951 19-387): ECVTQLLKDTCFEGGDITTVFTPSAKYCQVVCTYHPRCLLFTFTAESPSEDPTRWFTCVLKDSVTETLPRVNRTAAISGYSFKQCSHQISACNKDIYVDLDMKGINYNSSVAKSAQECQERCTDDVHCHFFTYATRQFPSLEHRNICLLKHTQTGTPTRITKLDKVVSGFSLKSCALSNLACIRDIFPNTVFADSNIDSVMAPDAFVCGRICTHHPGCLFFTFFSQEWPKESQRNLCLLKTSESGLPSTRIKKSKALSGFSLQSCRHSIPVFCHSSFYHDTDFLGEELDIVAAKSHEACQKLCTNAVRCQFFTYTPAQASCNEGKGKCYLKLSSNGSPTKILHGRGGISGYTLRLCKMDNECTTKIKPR
Chain of plasmin (P00747 581-810): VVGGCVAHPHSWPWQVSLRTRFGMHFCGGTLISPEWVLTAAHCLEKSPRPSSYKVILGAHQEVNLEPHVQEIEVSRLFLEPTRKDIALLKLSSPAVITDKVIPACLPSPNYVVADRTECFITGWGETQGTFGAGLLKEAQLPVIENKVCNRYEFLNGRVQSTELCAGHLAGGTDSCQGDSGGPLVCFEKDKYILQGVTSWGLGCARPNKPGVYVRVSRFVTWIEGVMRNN
Chain of plasmin (P00747 97-580): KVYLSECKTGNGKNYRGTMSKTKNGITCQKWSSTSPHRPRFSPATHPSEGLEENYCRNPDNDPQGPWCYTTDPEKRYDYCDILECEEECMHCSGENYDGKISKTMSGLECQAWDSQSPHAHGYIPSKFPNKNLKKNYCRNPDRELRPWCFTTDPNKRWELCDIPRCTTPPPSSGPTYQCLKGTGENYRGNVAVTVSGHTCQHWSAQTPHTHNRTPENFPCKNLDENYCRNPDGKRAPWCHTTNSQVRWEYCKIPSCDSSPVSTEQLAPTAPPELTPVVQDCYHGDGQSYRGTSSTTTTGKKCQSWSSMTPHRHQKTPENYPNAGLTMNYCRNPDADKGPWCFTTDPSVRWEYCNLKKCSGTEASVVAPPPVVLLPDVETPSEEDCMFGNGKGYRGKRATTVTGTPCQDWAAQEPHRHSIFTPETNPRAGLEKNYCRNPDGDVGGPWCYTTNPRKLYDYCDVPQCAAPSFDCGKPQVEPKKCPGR
Chain of Human plasma kallikrein (P03952 391-638): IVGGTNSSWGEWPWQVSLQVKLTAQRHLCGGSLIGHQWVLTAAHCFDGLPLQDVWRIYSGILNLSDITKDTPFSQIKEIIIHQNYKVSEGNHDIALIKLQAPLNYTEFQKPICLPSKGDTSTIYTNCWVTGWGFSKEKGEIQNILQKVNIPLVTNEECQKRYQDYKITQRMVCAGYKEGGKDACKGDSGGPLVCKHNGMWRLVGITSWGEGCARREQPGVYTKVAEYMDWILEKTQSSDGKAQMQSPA
Chain of Human plasma kallikrein (P03952 20-390): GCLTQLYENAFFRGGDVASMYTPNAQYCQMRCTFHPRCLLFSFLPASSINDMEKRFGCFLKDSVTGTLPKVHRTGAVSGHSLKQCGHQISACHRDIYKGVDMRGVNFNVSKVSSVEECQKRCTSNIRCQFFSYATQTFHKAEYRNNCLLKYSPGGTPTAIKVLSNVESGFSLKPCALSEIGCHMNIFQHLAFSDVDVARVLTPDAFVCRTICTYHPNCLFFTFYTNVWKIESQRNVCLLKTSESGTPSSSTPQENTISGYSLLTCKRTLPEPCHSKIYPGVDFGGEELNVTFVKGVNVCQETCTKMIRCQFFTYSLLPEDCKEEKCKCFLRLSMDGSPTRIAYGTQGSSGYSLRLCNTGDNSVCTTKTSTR
Chain of Human Factor XIIa (P00748 373-615): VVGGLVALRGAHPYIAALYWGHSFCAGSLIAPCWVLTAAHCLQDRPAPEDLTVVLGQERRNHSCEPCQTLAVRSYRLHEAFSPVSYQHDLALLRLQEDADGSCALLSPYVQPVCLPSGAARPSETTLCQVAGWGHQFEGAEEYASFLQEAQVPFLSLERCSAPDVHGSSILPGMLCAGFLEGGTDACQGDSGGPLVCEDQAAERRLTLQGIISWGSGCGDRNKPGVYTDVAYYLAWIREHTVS
Chain of Human KLK1 (P06870 25-262): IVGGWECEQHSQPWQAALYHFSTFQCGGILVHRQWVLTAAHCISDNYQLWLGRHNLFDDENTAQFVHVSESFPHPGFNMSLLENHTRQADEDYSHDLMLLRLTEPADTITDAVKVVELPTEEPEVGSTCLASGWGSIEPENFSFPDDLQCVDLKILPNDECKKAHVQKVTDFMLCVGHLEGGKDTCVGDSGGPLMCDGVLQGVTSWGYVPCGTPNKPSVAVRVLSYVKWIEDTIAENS

| SMILES | Predicted in vivo human Clp (% LBF) [1] | inhibition at 40 µM (Human FXIa) | IC50 (Human FXIa) | Predicted in vivo rat Clp (% LBF) [2] | fraction unbound at 5 h, 5 μM [3] | Cmax [4] | Tmax [4] | IC50 (Human KLK1) | microsomal CLint at 5 μM [5] | IC50 (trypsin) | fraction unbound at 5 h, 5 μM [6] | IC50 (plasmin) | IC50 (thrombin) | microsomal CLint at 5 μM [7] | Papp at 1 h, 50 μM [8] | IC50 (Human Factor XIIa) | IC50 (Human plasma kallikrein) | solubility ([9]; simulated gastric fluid, 0.1N HCl (aq), read-out: Solubility 0.1N HCl (aq)) | solubility ([9]; water, read-out: Solubility Water) |
| --- | --- | --- | --- | --- | --- | --- | --- | --- | --- | --- | --- | --- | --- | --- | --- | --- | --- | --- | --- |
| COc1ccnc(CNC(=O)c2cn(Cc3ccc(Cn4ccccc4=O)cc3)nc2C(F)(F)F)c1F [Example 6, N-[(3-fluoro-4-methoxypyridin-2-yl)methyl]-1-({4-[(2-oxopyridin-1-yl)methyl]phenyl}methyl)-3-(trifluoromethyl)pyrazole-4-carboxamide] | 24 % LBF | 2% | > 40 µM | 6 % LBF | 0.13 | 1800 ng/mL | 30 min | > 4 µM | 42 µL/min/mg | > 40 µM | 0.05 | > 40 µM | > 40 µM | 30 µL/min/mg | 17 ×10⁻⁶ cm/s | > 4 µM | 0.0032 µM | – | – |
| COCc1nn(Cc2ccc(Cn3cc(F)ccc3=O)cc2)cc1C(=O)NCc1nccc(OC)c1F [Example 30, 1-({4-[(5-fluoro-2-oxopyridin-1-yl)methyl]phenyl}methyl)-N-[(3-fluoro-4-methoxypyridin-2-yl)methyl]-3-(methoxymethyl)pyrazole-4-carboxamide] | 12 % LBF | 7% | > 40 µM | 1 % LBF | 0.18 | 756 ng/mL | 38 min | > 40 µM | 20 µL/min/mg | > 40 µM | 0.03 | > 40 µM | > 40 µM | 22 µL/min/mg | 24 ×10⁻⁶ cm/s | > 40 µM | 0.0067 µM | 940 µg/mL (≈ 1840 µM) | 290 µg/mL (≈ 569 µM) |

Source: patent publication US11180484B2, “Pyrazole derivatives as plasma kallikrein inhibitors” (KALVISTA PHARMACEUTICALS LIMITED, priority 2016, dated 2021)
